One data set concerns Apis mellifera. The note with it: acute; duration: 48 hours; oral; unspecified; mortality.
Another data set concerns Colinus virginianus. To be noted: for NOEL: reproduction developmental, reproduction.
The next data set concerns Bibionidae. To be noted: chronic/long-term; duration: 28 days; other.
The subject of a further data set is Oncorhynchus mykiss. To be noted: acute; duration: 96 hours; mortality.
A further data set relates to Typhlodromus pyri. Nature of the data set: LR50; higher = less toxic. The note with it: acute; duration: 7 days; mortality.
The next data set deals with Aphidius rhopalosiphi. Nature of the data set: LR50; higher = less toxic. The note with it: acute; duration: 48 hours; mortality.

SMILES strings stand for the structures. In brackets after ≈: the same amount, converted by molar mass.

Regarding `FC(F)(F)c1ccc(OCCCOc2c(Cl)cc(OCC=C(Cl)Cl)cc2Cl)nc1` [Pyridalyl], the LD50 was over 5000 mg/kg-day in the data set on Rattus norvegicus (acute, oral, mortality); over 100 µg/piece in the data set with Apis mellifera; over 2250 mg/kg-day in the data set with Colinus virginianus (acute, oral, mortality). In addition, the NOAEL with Rattus norvegicus (chronic, duration: 2 years, body weight) amounted to 3.4 mg/kg-day; in the data set with Rattus norvegicus (reproduction developmental, body weight) it was 2.8 mg/kg-day; with Rattus norvegicus (subchronic, duration: 13 weeks, oral, hematological), 5.6 mg/kg-day. The LC50 was over 1000 mg/kg in the data set on Tagia sp. (acute, duration: 14 days, mortality); 334 mg/kg-day with Colinus virginianus (acute, oral, diet, mortality); 0.001 mg/L (≈ 0.00204 µM) with Neomysis kadiakensis (acute, duration: 96 hours, mortality); 0.5 mg/L (≈ 1.02 µM) with Oncorhynchus mykiss. Also, the NOEC was determined as 63 mg/kg in the data set on Tagia sp. (chronic/long-term, duration: 56 days, reproduction); 12 µg/L in the data set with Bibionidae; 0.45 µg/L in the data set with Neomysis kadiakensis (chronic/long-term, duration: 28 days, reproduction). The NOEL with Colinus virginianus (F) turned out to be 11.9 mg/kg-day; in the data set on Colinus virginianus it was 12.6 mg/kg-day. Further, the LR50 is over 600 g/ha with Typhlodromus pyri and 458 g/ha in the data set on Aphidius rhopalosiphi.

These data come from EPA's ToxValDB 9.5 (doi:10.2903/j.efsa.2013.3240).
